Key:
Assay type in all cases: in vivo
[1] = tested on: barnyardgrass (Echinochloa crus-galli); assay: Test A preemergence soil spray, visual injury rating 0-100; conditions: 10 days, 0 = no effect, 100 = complete control
Outline: (§1)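 Scale 0–100 (no effect to complete control), visual, versus untreated controls, read 10 days after application. Application: preemergence directed spray onto seeded loam–sand soil, or postemergence to young plants; formulation in non-phytotoxic solvent with surfactant.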

[2] = tested on: blackgrass (Alopecurus myosuroides); assay: as above; conditions: 10 days, 0 = no effect, 100 = complete control
Outline: as §1

[3] = tested on: corn (Zea mays); assay: as above; conditions: 10 days, 0 = no effect, 100 = complete control
Outline: as §1

[4] = tested on: green foxtail (Setaria viridis); assay: as above; conditions: 10 days, 0 = no effect, 100 = complete control
Outline: as §1

[5] = tested on: kochia (Bassia scoparia); assay: as above; conditions: 10 days, 0 = no effect, 100 = complete control
Outline: as §1

[6] = tested on: oat, wild (wild oat, Avena fatua); assay: as above; conditions: 10 days, 0 = no effect, 100 = complete control
Outline: as §1

[7] = tested on: palmer (palmer amaranth, palmer pigweed, Amaranthus palmeri); assay: as above; conditions: 10 days, 0 = no effect, 100 = complete control
Outline: as §1

[8] = tested on: ragweed (common ragweed, Ambrosia artemisiifolia); assay: as above; conditions: 10 days, 0 = no effect, 100 = complete control
Outline: as §1

[9] = tested on: ryegrass, Italian (italian ryegrass, Lolium multiflorum); assay: as above; conditions: 10 days, 0 = no effect, 100 = complete control
Outline: as §1

[10] = tested on: soybean (Glycine max); assay: as above; conditions: 10 days, 0 = no effect, 100 = complete control
Outline: as §1

[11] = tested on: wheat (Triticum aestivum); assay: as above; conditions: 10 days, 0 = no effect, 100 = complete control
Outline: as §1

[12] = tested on: barnyardgrass (Echinochloa crus-galli); assay: Test A postemergence application, visual injury rating 0-100; conditions: 10 days
Outline: as §1

[13] = tested on: blackgrass (Alopecurus myosuroides); assay: as above; conditions: 10 days
Outline: as §1

[14] = tested on: corn (Zea mays); assay: as above; conditions: 10 days
Outline: as §1

[15] = tested on: galium (catchweed bedstraw, Galium aparine); assay: as above; conditions: 10 days
Outline: as §1

[16] = tested on: green foxtail (Setaria viridis); assay: as above; conditions: 10 days
Outline: as §1

[17] = tested on: horseweed (Erigeron canadensis); assay: as above; conditions: 10 days
Outline: as §1

[18] = tested on: kochia (Bassia scoparia); assay: as above; conditions: 10 days
Outline: as §1

[19] = tested on: oat, wild (wild oat, Avena fatua); assay: as above; conditions: 10 days
Outline: as §1

[20] = tested on: palmer (palmer amaranth, palmer pigweed, Amaranthus palmeri); assay: as above; conditions: 10 days
Outline: as §1

[21] = tested on: ragweed (common ragweed, Ambrosia artemisiifolia); assay: as above; conditions: 10 days
Outline: as §1

[22] = tested on: ryegrass, Italian (italian ryegrass, Lolium multiflorum); assay: as above; conditions: 10 days
Outline: as §1

[23] = tested on: soybean (Glycine max); assay: as above; conditions: 10 days
Outline: as §1

[24] = tested on: wheat (Triticum aestivum); assay: as above; conditions: 10 days
Outline: as §1

[25] = tested on: barnyardgrass (Echinochloa crusgalli); assay: Test B flooded paddy test, visual plant response rating 0-100; conditions: 250 g ai/ha, Flood, applied to paddy water, evaluated after 13 days
Outline: (§2)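 In this flooded assay, 2-leaf seedlings received compound through the water layer, kept at 3 cm over the soil. Plants were held 13 days in a greenhouse and then visually compared with control pots.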

[26] = tested on: ducksalad (Heteranthera limosa); assay: as above; conditions: 250 g ai/ha, Flood, applied to paddy water, evaluated after 13 days
Outline: as §2

[27] = tested on: rice (Oryza sativa); assay: as above; conditions: 250 g ai/ha, Flood, applied to paddy water, evaluated after 13 days
Outline: as §2

[28] = tested on: sedge, umbrella (small-flower umbrella sedge, Cyperus difformis); assay: as above; conditions: 250 g ai/ha, Flood, applied to paddy water, evaluated after 13 days
Outline: as §2

[29] = 31 g ai/ha, postemergence, 0 = no effect, 100 = complete control
[30] = Postemergence, 125 g ai/ha, 0 is no effect, 100 is complete control

## CC1(C(=O)NC2C=CC(C(=O)OCC(F)(F)F)C2)CN(c2cc(F)cc(F)c2)C(=O)O1 (stereo not shown) [Compound 55]
[1]; 31 g ai/ha
  Barnyardgrass plant response rating (0-100): 20
[1]; 125 g ai/ha
  Barnyardgrass plant response rating (0 to 100 scale): 100
[2]; 31 g ai/ha
  Blackgrass plant response rating (0-100): 20
[2]; 125 g ai/ha
  Blackgrass plant response rating (0 to 100 scale): 90
[3]; 31 g ai/ha
  Corn plant response rating (0-100): 20
[3]; 125 g ai/ha
  Corn plant response rating (0 to 100 scale): 40
[4]; 31 g ai/ha
  Foxtail, Green plant response rating (0-100): 0
[4]; 125 g ai/ha
  Foxtail, Green plant response rating (0 to 100 scale): 90
[5]; 31 g ai/ha
  Kochia plant response rating (0-100): 0
[5]; 125 g ai/ha
  Kochia plant response rating (0 to 100 scale): 90
[6]; 31 g ai/ha
  Oat, Wild plant response rating (0-100): 60
[6]; 125 g ai/ha
  Oat, Wild plant response rating (0 to 100 scale): 90
[7]; 31 g ai/ha
  Amaranth, Palmer plant response rating (0-100): 20
[7]; 125 g ai/ha
  Amaranth, Palmer plant response rating (0 to 100 scale): 70
[8]; 31 g ai/ha
  Ragweed plant response rating (0-100): 0
[8]; 125 g ai/ha
  Ragweed plant response rating (0 to 100 scale): 0
[9]; 31 g ai/ha
  Ryegrass, Italian plant response rating (0-100): 80
[9]; 125 g ai/ha
  Ryegrass, Italian plant response rating (0 to 100 scale): 90
[10]; 31 g ai/ha
  Soybean plant response rating (0-100): 40
[10]; 125 g ai/ha
  Soybean plant response rating (0 to 100 scale): 80
[11]; 31 g ai/ha
  Wheat plant response rating (0-100): 90
[11]; 125 g ai/ha
  Wheat plant response rating (0 to 100 scale): 100
[12]; [29]
  Barnyardgrass plant response rating (0-100): 90
[12]; [30]
  Barnyardgrass plant response rating (0 to 100 scale): 100
[13]; [29]
  Blackgrass plant response rating (0-100): 50
[13]; [30]
  Blackgrass plant response rating (0 to 100 scale): 100
[14]; [29]
  Corn plant response rating (0-100): 100
[14]; [30]
  Corn plant response rating (0 to 100 scale): 100
[15]; [29]
  Galium plant response rating (0-100): 80
[15]; [30]
  Galium plant response rating (0 to 100 scale): 80
[16]; [29]
  Foxtail, Green plant response rating (0-100): 20
[16]; [30]
  Foxtail, Green plant response rating (0 to 100 scale): 80
[17]; [29]
  Horseweed plant response rating (0-100): 70
[17]; [30]
  Horseweed plant response rating (0 to 100 scale): 80
[18]; [29]
  Kochia plant response rating (0-100): 80
[18]; [30]
  Kochia plant response rating (0 to 100 scale): 80
[19]; [29]
  Oat, Wild plant response rating (0-100): 90
[19]; [30]
  Oat, Wild plant response rating (0 to 100 scale): 90
[20]; [29]
  Amaranth, Palmer plant response rating (0-100): 80
[20]; [30]
  Amaranth, Palmer / Pigweed, Palmer plant response rating (0 to 100 scale): 90
[21]; [29]
  Ragweed plant response rating (0-100): 50
[21]; [30]
  Ragweed plant response rating (0 to 100 scale): 60
[22]; [29]
  Ryegrass, Italian plant response rating (0-100): 90
[22]; [30]
  Ryegrass, Italian plant response rating (0 to 100 scale): 90
[23]; [29]
  Soybean plant response rating (0-100): 70
[23]; [30]
  Soybean plant response rating (0 to 100 scale): 70
[24]; [29]
  Wheat plant response rating (0-100): 80
[24]; [30]
  Wheat plant response rating (0 to 100 scale): 90
[25]
  Plant response rating, Barnyardgrass (0 to 100 scale, 0 is no effect and 100 is complete control): 90
[26]
  Plant response rating, Ducksalad (0 to 100 scale, 0 is no effect and 100 is complete control): 85
[27]
  Plant response rating, Rice (0 to 100 scale, 0 is no effect and 100 is complete control): 15
[28]
  Plant response rating, Sedge, Umbrella (0 to 100 scale, 0 is no effect and 100 is complete control): 45
